Reference: patent US20230135729A1, “COMPOUND WITH ANTI-SPORE ACTIVITY AND PHARMACEUTICAL COMPOSITION THEREOF” (priority 2020, published 2023)
Converted amounts (≈) assume the structure as drawn. Where two headings read alike, the source gives them in different places.

Assays:
Format in all cases: cell-based
[1] = system: spores of ATCC 43255 strain; experiment: Inhibition of germination of C. difficile spores (MIC), strain ATCC 43255; conditions: Clostridioides difficile, ATCC43255, 1 h, read-out: MIC (minimum concentration that completely inhibits spore germination)
Method in brief: (§1)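 Spores heat-activated for 30 min at 65° C and washed, then preincubated with compound (10 mM DMSO stock) in BHIS at 37° C. Germination was triggered with sodium taurocholate, and OD580 was read each minute for 60 min. Inhibition = 100% − germination rate, from final vs initial OD relative to germinant-only controls.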

[2] = system: spores of ATCC 630 strain; experiment: Inhibition of germination of C. difficile spores (MIC), strain ATCC 630; conditions: Clostridioides difficile, ATCC630, 1 h, read-out: MIC (minimum concentration that completely inhibits spore germination)
Method in brief: as §1

[3] = system: spores of ATCC BBA1870 strain; experiment: Inhibition of germination of C. difficile spores (MIC), strain ATCC BBA1870; conditions: Clostridioides difficile, ATCCBBA1870STRAIN, 1 h, read-out: MIC (minimum concentration that completely inhibits spore germination)
Method in brief: as §1

[4] = strain 43255, sodium taurocholate as germinant, BHIS medium, 37° C., OD580 for 60 min
[5] = strain 630, sodium taurocholate as germinant, BHIS medium, 37° C., OD580 for 60 min
[6] = strain 1870, sodium taurocholate as germinant, BHIS medium, 37° C., OD580 for 60 min

| SMILES | MIC [1, 4] [µM] | MIC [2, 5] [µM] | MIC [3, 6] [µM] | MIC [1] [µM] | MIC [2] [µM] | MIC [3] [µM] |
| --- | --- | --- | --- | --- | --- | --- |
| CC(C)[C@@H](NC(=O)C[C@@H](C)[C@H]1CC[C@H]2[C@@H]3CC(=O)[C@@H]4CC(=O)CC[C@]4(C)[C@H]3CC[C@]12C)c1ccc(Cl)s1 [Compound I-131] | 2 (≈ 1.09 µg/mL) | 2 (≈ 1.09 µg/mL) | 2 (≈ 1.09 µg/mL) |  |  |  |
| CC(=O)O[C@@H]1CC2=CC(=O)CC[C@]2(C)[C@H]2CC[C@]3(C)[C@@H]([C@H](C)CC(=O)N[C@@H](c4ccc(Cl)s4)C(C)C)CC[C@H]3[C@H]12 [I-158 -1] | 0.5 (≈ 0.294 µg/mL) | 0.5 (≈ 0.294 µg/mL) | 0.5 (≈ 0.294 µg/mL) |  |  |  |
| CC(C)[C@@H](NC(=O)C[C@@H](C)[C@H]1CC[C@H]2[C@@H]3C(=O)C[C@@H]4C[C@H](O)CC[C@]4(C)[C@H]3CC[C@]12C)c1ccc(Cl)s1 [Compound I-150] | 2 (≈ 1.1 µg/mL) | 1 (≈ 0.548 µg/mL) | 2 (≈ 1.1 µg/mL) |  |  |  |
| CC(NC(=O)C[C@@H](C)[C@H]1CC[C@H]2[C@@H]3C(=O)C[C@@H]4CC(=O)CC[C@]4(C)[C@H]3CC[C@]12C)c1ccc(S(=O)(=O)O)s1 (stereo partly drawn) [Compound I-34] | 64 (≈ 36.1 µg/mL) | 64 (≈ 36.1 µg/mL) | 64 (≈ 36.1 µg/mL) |  |  |  |
| CC(=O)c1ccc([C@H](NC(=O)C[C@@H](C)[C@H]2CC[C@H]3[C@@H]4C(=O)C[C@@H]5CC(=O)CC[C@]5(C)[C@H]4CC[C@]23C)C(C)C)s1 [Compound I-202] | 32 (≈ 17.7 µg/mL) | 32 (≈ 17.7 µg/mL) | 32 (≈ 17.7 µg/mL) |  |  |  |
| CC[C@@H](NC(=O)C[C@@H](C)[C@H]1CC[C@H]2[C@@H]3[C@H](N)C[C@@H]4CC(=O)CC[C@]4(C)[C@H]3CC[C@]12C)c1ccc(Cl)s1 [Compound I-172] | 32 (≈ 17.1 µg/mL) | 32 (≈ 17.1 µg/mL) | 32 (≈ 17.1 µg/mL) |  |  |  |
| CC(C)[C@@H](NC(=O)C[C@@H](C)[C@H]1CC[C@H]2[C@@H]3[C@H](O)C[C@@H]4C[C@H](O)CC[C@]4(C)[C@H]3CC[C@]12C)c1ccc(Cl)s1 [Compound I-139] | 1 (≈ 0.55 µg/mL) | 1 (≈ 0.55 µg/mL) | 2 (≈ 1.1 µg/mL) |  |  |  |
| CC[C@@H](NC(=O)C[C@@H](C)[C@H]1CC[C@H]2[C@@H]3[C@H](O)C[C@@H]4C[C@@H](O)CC[C@]4(C)[C@H]3CC[C@]12C)c1ccc(Br)s1 [Compound I-143] | 4 (≈ 2.32 µg/mL) | 4 (≈ 2.32 µg/mL) | 8 (≈ 4.65 µg/mL) |  |  |  |
| C[C@H](CC(=O)NCc1ccco1)[C@H]1CC[C@H]2[C@@H]3[C@H](O)C[C@@H]4C[C@H](O)CC[C@]4(C)[C@H]3C[C@H](O)[C@]12C [Compound I-17] | 32 (≈ 15.2 µg/mL) | 32 (≈ 15.2 µg/mL) | 64 (≈ 30.3 µg/mL) |  |  |  |
| CC(C)[C@H](NC(=O)C[C@@H](C)[C@H]1CC[C@H]2[C@@H]3C(=O)C[C@@H]4CC(=O)CC[C@]4(C)[C@H]3CC[C@]12C)c1ccc(Br)s1 [Compound I-79] | 8 (≈ 4.73 µg/mL) | 4 (≈ 2.36 µg/mL) | 8 (≈ 4.73 µg/mL) |  |  |  |
| CC[C@H](NC(=O)C[C@@H](C)[C@H]1CC[C@H]2[C@@H]3C(=O)C[C@@H]4CC(=O)CC[C@]4(C)[C@H]3CC[C@]12C)c1ccc(Cl)s1 [Compound I-69] | 16 (≈ 8.52 µg/mL) | 8 (≈ 4.26 µg/mL) | 8 (≈ 4.26 µg/mL) |  |  |  |
| CC[C@@H](NC(=O)C[C@@H](C)[C@H]1CC[C@H]2[C@@H]3C(=O)CC4=CC(=O)CC[C@]4(C)[C@H]3CC[C@]12C)c1ccc(Br)s1 [Compound I-151] | 1 (≈ 0.575 µg/mL) | 0.5 (≈ 0.287 µg/mL) | 0.5 (≈ 0.287 µg/mL) |  |  |  |
| CC(C)C(NC(=O)C[C@@H](C)[C@H]1CC[C@H]2[C@@H]3[C@H](O)C[C@@H]4CC(=O)CC[C@]4(C)[C@H]3CC[C@]12C)c1ccc(Br)s1 (stereo partly drawn) [Compound I-98] | 0.5 (≈ 0.296 µg/mL) | 0.5 (≈ 0.296 µg/mL) | 0.5 (≈ 0.296 µg/mL) |  |  |  |
| CCCCCCCCCCCC(NC(=O)C[C@@H](C)[C@H]1CC[C@H]2[C@@H]3C(=O)C[C@@H]4CC(=O)CC[C@]4(C)[C@H]3CC[C@]12C)c1cccs1 (stereo partly drawn) [Compound I-46] | > 256 | > 256 | > 256 |  |  |  |
| CC[C@@H](NC(=O)C[C@@H](C)[C@H]1CC[C@H]2[C@@H]3CC[C@@H]4C[C@H](O)CC[C@]4(C)[C@H]3CC[C@]12C)c1ccc(Br)s1 [Compound I-147] | 16 (≈ 9.03 µg/mL) | 16 (≈ 9.03 µg/mL) | 32 (≈ 18.1 µg/mL) |  |  |  |
| C[C@H](CC(=O)NCc1nccs1)[C@H]1CC[C@H]2[C@@H]3[C@H](O)C[C@@H]4C[C@H](O)CC[C@]4(C)[C@H]3CC[C@]12C [Compound I-7] | 16 (≈ 7.6 µg/mL) | 16 (≈ 7.6 µg/mL) | 16 (≈ 7.6 µg/mL) |  |  |  |

| SMILES | MIC [1, 4] [µM] | MIC [2, 5] [µM] | MIC [3, 6] [µM] | MIC [1] [µM] | MIC [2] [µM] | MIC [3] [µM] |
| --- | --- | --- | --- | --- | --- | --- |
| CCCCC(NC(=O)C[C@@H](C)[C@H]1CC[C@H]2[C@@H]3C(=O)C[C@@H]4CC(=O)CC[C@]4(C)[C@H]3CC[C@]12C)c1cccs1 (stereo partly drawn) [Compound I-42] | 1 (≈ 0.526 µg/mL) | 1 (≈ 0.526 µg/mL) | 2 (≈ 1.05 µg/mL) |  |  |  |
| CC[C@@H](NC(=O)C[C@@H](C)[C@H]1CC[C@H]2[C@@H]3C(=O)C[C@@H]4CC(=O)CC[C@]4(C)[C@H]3CC[C@]12C)c1ccc(N(C)C)s1 [Compound I-203] |  |  |  | 32 (≈ 17.3 µg/mL) | 16 (≈ 8.65 µg/mL) | 32 (≈ 17.3 µg/mL) |
| CC(C)C(NC(=O)C[C@@H](C)[C@H]1CC[C@H]2[C@@H]3C(=O)C[C@@H]4CC(=O)CC[C@]4(C)[C@H]3CC[C@]12C)c1ccc(S(=O)(=O)O)s1 (stereo partly drawn) [Compound I-81] | 32 (≈ 18.9 µg/mL) | 32 (≈ 18.9 µg/mL) | 32 (≈ 18.9 µg/mL) |  |  |  |
| CC(C)[C@@H](NC(=O)C[C@@H](C)[C@H]1CC[C@H]2[C@@H]3C(=O)CC4=CC(=O)C=C[C@]4(C)[C@H]3CC[C@]12C)c1ccc(Cl)s1 [Compound I-154] | 0.5 (≈ 0.271 µg/mL) | 0.5 (≈ 0.271 µg/mL) | 1 (≈ 0.542 µg/mL) |  |  |  |
| CC(C)[C@@H](NC(=O)C[C@@H](C)[C@H]1CC[C@H]2[C@@H]3[C@H](OP(=O)(O)O)C[C@@H]4CC(=O)CC[C@]4(C)[C@H]3CC[C@]12C)c1ccc(Cl)s1 [Compound I-193] | 64 (≈ 40.2 µg/mL) | 64 (≈ 40.2 µg/mL) | 64 (≈ 40.2 µg/mL) |  |  |  |
| CC(C)[C@@H](NC(=O)C[C@@H](C)[C@H]1CC[C@H]2[C@@H]3[C@H](OS(=O)(=O)O)C[C@@H]4CC(=O)CC[C@]4(C)[C@H]3CC[C@]12C)c1ccc(Br)s1 [Compound I-115] | 0.25 (≈ 0.168 µg/mL) | 0.5 (≈ 0.336 µg/mL) | 0.5 (≈ 0.336 µg/mL) |  |  |  |
| CC(C)C(NC(=O)C[C@@H](C)[C@H]1CC[C@H]2[C@@H]3[C@H](O)C[C@@H]4CC(=O)CC[C@]4(C)[C@H]3CC[C@]12C)c1ccc(S(=O)(=O)O)s1 (stereo partly drawn) [Compound I-101] | 32 (≈ 19 µg/mL) | 32 (≈ 19 µg/mL) | 32 (≈ 19 µg/mL) |  |  |  |
| C[C@H](CC(=O)N[C@H](C)c1ccccc1)[C@H]1CC[C@H]2[C@@H]3C(=O)C[C@@H]4CC(=O)CC[C@]4(C)[C@H]3CC[C@]12C [Compound I-25] | 1 (≈ 0.478 µg/mL) | 1 (≈ 0.478 µg/mL) | 2 (≈ 0.955 µg/mL) |  |  |  |
| CC[C@H](NC(=O)C[C@@H](C)[C@H]1CC[C@H]2[C@@H]3[C@H](O)C[C@@H]4CC(=O)CC[C@]4(C)[C@H]3CC[C@]12C)c1ccc(S(=O)(=O)O)s1 [Compound I-93] | > 256 | > 256 | > 256 |  |  |  |
| CC(C)C(NC(=O)C[C@@H](C)[C@H]1CC[C@H]2[C@@H]3C[C@H](O)[C@@H]4C[C@H](O)CC[C@]4(C)[C@H]3CC[C@]12C)c1cccs1 (stereo partly drawn) [Compound I-127] | 8 (≈ 4.13 µg/mL) | 4 (≈ 2.06 µg/mL) | 8 (≈ 4.13 µg/mL) |  |  |  |
| CC(NC(=O)C[C@@H](C)[C@H]1CC[C@H]2[C@@H]3[C@H](O)C[C@@H]4C[C@H](O)CC[C@]4(C)[C@H]3CC[C@]12C)c1ccccc1 (stereo partly drawn) [Compound I-9] | 8 (≈ 3.85 µg/mL) | 8 (≈ 3.85 µg/mL) | 8 (≈ 3.85 µg/mL) |  |  |  |
| CC[C@@H](NC(=O)C[C@@H](C)[C@H]1CC[C@H]2[C@@H]3[C@H](O)C[C@@H]4CC(=O)CC[C@]4(C)[C@H]3CC[C@]12C)c1ccc(Cl)s1 [Compound I-88] | 0.25 (≈ 0.134 µg/mL) | 0.125 (≈ 0.0668 µg/mL) | 0.25 (≈ 0.134 µg/mL) |  |  |  |
| CCC(NC(=O)C[C@@H](C)[C@H]1CC[C@H]2[C@@H]3C[C@H](O)[C@@H]4C[C@H](O)CC[C@]4(C)[C@H]3CC[C@]12C)c1cccs1 (stereo partly drawn) [Compound I-125] | 2 (≈ 1 µg/mL) | 2 (≈ 1 µg/mL) | 2 (≈ 1 µg/mL) |  |  |  |
| CC[C@@H](NC(=O)C[C@@H](C)[C@H]1CC[C@H]2[C@@H]3[C@H](OC(=O)CCCCCCC(=O)O)C[C@@H]4CC(=O)CC[C@]4(C)[C@H]3CC[C@]12C)c1ccc(Br)s1 [Compound I-188] | 0.25 (≈ 0.184 µg/mL) | 0.25 (≈ 0.184 µg/mL) | 0.25 (≈ 0.184 µg/mL) |  |  |  |
| CC(C)[C@@H](NC(=O)C[C@@H](C)[C@H]1CC[C@H]2[C@@H]3[C@H](O)C[C@@H]4CC(=O)CC[C@]4(C)[C@H]3CC[C@]12C)c1ccc(S(=O)(=O)O)s1 [Compound I-103] | 16 (≈ 9.5 µg/mL) | 16 (≈ 9.5 µg/mL) | 16 (≈ 9.5 µg/mL) |  |  |  |
| CO[C@@H]1CC[C@@]2(C)[C@H](CC(=O)[C@@H]3[C@@H]2CC[C@]2(C)[C@@H]([C@H](C)CC(=O)N[C@@H](c4ccc(Cl)s4)C(C)C)CC[C@@H]32)C1 [Compound I-168] | 128 (≈ 72 µg/mL) | 128 (≈ 72 µg/mL) | 128 (≈ 72 µg/mL) |  |  |  |
